{"source": "patent US10281476B2", "about": "“Methods to identify modulators of RyR calcium channels” (REGENTS OF THE UNIVERSITY OF MINNESOTA, priority 2013, dated 2019)", "key": {"[1]": {"system": "RyR", "assay": "Pilot FLT-FRET screen of NIH Clinical Collection 1 with D-FKBP and A-CaM near their Kd", "format": "binding", "details": "preliminary screen", "text": "The optimal concentration of A-CaM may vary from sarcoplasmic reticulum to cell samples, but using a concentration of A-CaM that is at or near its Kd will allow detection of enhanced CaM binding by FRET assays. Compounds that modulate CaM binding are expected to also affect RyR channel function, which can optionally be determined in secondary functional assays. […] A pilot screen of NIH Clinical Collection 1 used donor labeled FKBP and acceptor labeled CaM near their Kd.\nUsing the method illustrated in FIGS. 3 and 4, a preliminary screen of NIH Clinical Collection 1 (NCC1, 446 compounds) was conducted. The concentrations of A-CaM and D-FKBP were near their Kd. […] In FIG. 36, we represented the effect of compounds on FRET as E(compound)/E(control) (E/E0). Values outside the 3SD threshold (dotted line) are considered hits. Increased FRET (E/E0>1) indicates increased FKBP and/or CaM binding; decreased FRET (E/E0<1) indicates decreased FKBP and/or CaM binding."}, "[2]": {"biological_target": "T1, RyR2 (Rattus norvegicus, UniProt B0LPN4)", "assay": "HF647-DPc10 wash-in kinetics by FRET from F-FKBP (donor quench) in permeabilized myocytes", "format": "binding", "parameters": "These fluorescent proteins were added to saponin-permeabilized myocytes with or without pre-equilibration with saturating DPc10 concentration; endogenous in cells; host or cells: saponin-permeabilized rat ventricular myocytes", "details": "myocytes", "protocol": "The FRET pair we used in this consisted of ALEXA FLUOR™ 488 (donor) covalently attached to FKBP12.6 (F-FKBP) and HiLyte Fluor™647 (acceptor) covalently attached to DPc10 (F-DPc10).^8 To detect F-DPc10 specifically bound to RyR2, we measured donor fluorescence intensities through a 500-530 nm bandpass filter before and after equilibration with acceptor (donor quenching method). The FRET efficiency (E) was calculated according to: E=1-FDA/FD, Where FD and FDA are the fluorescence intensities of the donor-only and donor-plus-acceptor samples, respectively (Oda et al., Circ Res. 2013;112:487-497). Statistics\nNext we tested whether RyR2 oxidation would increase HF647-DPc10 access. Here, we used FRET between F-FKBP as a donor and HF647-DPc10 as an acceptor, to detect DPc10 that specifically binds at RyR2 (Oda et al., Circ Res. 2013; 112:487-497)."}, "[3]": {"biological_target": "T1, RyR2", "assay": "Steady-state F-DPc10 binding at the Z-line of saponin-permeabilized myocytes (confocal)", "parameters": "endogenous in cells; host or cells: saponin-permeabilized adult rat ventricular myocytes", "details": "in-cell binding isotherm, [Ca2+]i 50 nmol/L", "protocol": "Rat ventricular myocytes were isolated and permeabilized as previously described (Li et al., Circ Res, 2002; 90:309-316). All procedures were performed according to the Guiding Principles in the Care and Use of the Animals and were approved by the Council of American Physiological Society. DPc10, FKBP12.6, and CaM were labeled at specific sites with small fluorescence probes, similar to our previous studies (Guo et al., Circ Res, 2010; 106:1743-1752; Cornea et al., PNAS USA, 2009; 106:6128-6133; Guo et al., Biophys J, 2011; 101:2170-2177).\nConfocal images was measured using a Biorad RADIANCE2100™ laser scanning confocal microscope equipped with an Argon ion laser, Green HeNe laser and with a Nikon Fluo x40 oil lens. FRET (fluorescence resonance energy transfer) experiments between CaM and DPc10, and FKBP12.6 and DPc10 were performed using an Olympus FV1000 confocal microscope. All experiments were done at room temperature.\nMyocytes were exposed to […] F-DPc10, with intracellular [Ca^2+] ([Ca^2+]i) set at 50 nmol/L. F-DPc10 fluorescence is highest at the Z-lines, where RyR2 is concentrated, forming a typical cross-striated pattern. The difference between fluorescence intensity at the Z-line (Fz) and M-line (FM) is taken to represent [F-DPc10] specifically bound at the myocyte Z-line. We calibrated the bound [F-DPc10] in permeabilized myocytes using the linear relationship between F-DPc10 fluorescence and bath [F-DPc10] (FIG. 7B). […] To further test whether this Z-line-associated F-DPc10 represents RyR2-bound F-DPc10, we measured FRET between FKBP12.6 (known to specifically bind to RyR2 with subnanomolar affinity) (Guo et al., Circ Res, 2010; 106:1743-1752) and F-DPc10. […] Donor (AF568-FKBP12.6) fluorescence at the Z-line was quenched by HF647-DPc10, but the M-line signal was not (FIG. 9B). […]"}, "[4]": {"biological_target": "T1, RyR2", "assay": "F-DPc10 wash-in and washout kinetics at the myocyte Z-line", "format": "binding", "parameters": "endogenous in cells; host or cells: saponin-permeabilized adult rat ventricular myocytes", "protocol": "To characterize DPc10-binding kinetics at Z-lines, we performed F-DPc10 wash-in (500 nmol/L) and washout experiments in permeabilized myocytes (FIG. 10A). Association (τwash-in=79.0±3.2 minutes) and dissociation (τwashout=149.8±4.4 minutes) were very slow compared with similar FKBP12.6 measurements (Guo et al., Circ Res, 2010; 106:1743-1752). From the wash-in/washout measurements, we calculated the association and dissociation rates constants, kon and koff, respectively, according to the following equation: kwash-in=[F-DPc10]kon+koff where kwashout≈koff and k=1/τ (s^−1). Accordingly, kon=202±20 (L mol^−1 s^−1) and koff=0.11±0.01 (10^−3 s^−1). […] We repeated this kinetic analysis using FRET between FKBP12.6 and DPc10, thus assessing the RyR2-specific DPc10 binding (FIG. 11A AND 11B). […] Based on these kinetic and affinity analyses, we infer that most of the Z-line-specific DPc10 binding is to RyR2. This is also consistent with Bmax, which would imply ≈1 DPc10 per RyR2 monomer.\nWe were intrigued by the slow kwash-in and conducted measurements to further understand the basis of this slow association. We tested the hypothesis that at resting [Ca^2+]i, DPc10 access to its RyR2 binding site is sterically hindered. If the N-terminal and central domains are tightly zipped to each other, then this interaction may occlude the DPc10-binding site on the RyR2, thus limiting the kon for DPc10. Alternatively, a limiting factor may be the rate at which DPc10 adopts a conformation that can bind to RyR2. To discern between these mechanisms, we determined the effect of [F-DPc10] on τwash-in. If the small fraction of DPc10 in the right conformation limits binding rate, then τwash-in should be faster at higher [F-DPc10], according to Equation. […] Instead, a 10-fold increase in [F-DPc10] had no significant effect on the τwash-in, although it did increase Bmax (FIG. 10B). The same was seen when using FKBP12.6-DPc10 FRET to assess τwash-in with 0.5 vs 5 μmol/L HF647-DPc10 (FIG. 12A AND 12B).\nIn our working model, under resting conditions, the RyR2 closed state may be stabilized by the interaction between the N-terminal and central domain in the zipped state. We hypothesized that conditions that promote RyR2 opening might enhance the rate of unzipping and accelerate τwash-in for F-DPc10. To test this, we first monitored F-DPc10 wash-in at elevated Ca^2+ (500 nmol/L). However, the 13% faster mean τwash-in was not significant (FIG. 13A). […] Thus, we preincubated myocytes with ryanodine (100 μmol/L) plus caffeine ([…]), which are known to favor long RyR2 openings and were reported to cause RyR2 domain unzipping in HEK293 cells (Liu et al., J Cell Sci, 2010; 123: 1775-1784). Ryanodine+caffeine produced a 21% faster τwash-in (P=0.002; FIG. 13B). However, the most significant effect was seen after presaturating RyR2 with NF-DPc10 (and then NF-DPc10 washout with F-DPc10 present; FIG. 13A). […] Assuming that koff of NF-DPc10 is the same as for F-DPc10 and using Equation, the kon is increased by 3.2-fold by unzipping as a result of prebinding of NF-DPc10 to the RyR2. Our working hypothesis is that the RyR2 open state may increase the probability of an RyR2 shifting to the unzipped state and may allow faster F-DPc10 wash-in. It also seems that the RyR2 open state (favored by caffeine-ryanodine) differs from the unzipped state (bound with DPc10).\nBoth FKBP12.6 and CaM bind to the RyR2 and can reduce channel opening, which might alter DPc10 binding. […] Neither CaM nor FKBP12.6 pretreatment altered M-line F-DPc10 fluorescence (FIG. 15). […] We infer that CaM stabilizes the domain interaction between N-terminal and central domains in the zipped state and thereby may reduce DPc10 access to its binding site. To test for direct CaM-DPc10 interaction, we performed control FRET measurements between donor-labeled CaM and acceptor-labeled DPc10 in solution in the absence of RyR. The maximal FRET efficiency (<1%) ruled out direct CaM-DPc10 interaction. […]"}, "[5]": {"details": "calculated from wash-in/washout"}}, "note": "Where a SMILES comes first, the peptide text is derived from it. The star is where a group is joined. 5FAM = O=C1OC2(c3ccc(O)cc3Oc3cc(O)ccc32)c2ccc(C(=O)*)cc21"}
{"compound": "Nc1nc(Cl)nc2c1ncn2[C@H]1C[C@H](O)[C@@H](CO)O1", "note": "[Cladribine]", "values": [{"measurement": "effect on FRET, E(compound)/E(control); hit = outside the 3SD threshold", "setting": "[1]", "result": "hits"}]}
{"compound": "CC[C@H](C)[C@H](NC(=O)CNC(=O)[C@H](Cc1ccc(O)cc1)NC(=O)[C@@H](NC(=O)[C@H](CCCNC(=N)N)NC(=O)[C@H](CC(=O)O)NC(=O)[C@H](CC(C)C)NC(=O)[C@H](Cc1ccccc1)NC(=O)[C@H](CC(C)C)NC(=O)[C@@H](NC(=O)[C@H](CCSC)NC(=O)[C@H](C)NC(=O)[C@H](C)NC(=O)[C@H](CCCCN)NC(=O)[C@H](Cc1c[nH]cn1)NC(=O)[C@H](CC(=O)O)NC(=O)[C@@H]1CCCN1C(=O)[C@H](CS)NC(=O)[C@H](Cc1ccccc1)NC(=O)CNC(=O)c1ccc2c(c1)C(=O)OC21c2ccc(O)cc2Oc2cc(O)ccc21)C(C)C)C(C)C)C(=O)N[C@@H](CCC(=O)O)C(=O)N[C@H](C(=O)N[C@@H](CCC(N)=O)C(=O)N[C@@H](CC(=O)O)C(=O)N[C@@H](Cc1ccccc1)C(=O)N[C@@H](CC(C)C)C(=O)N[C@@H](CC(C)C)C(=O)N[C@@H](Cc1c[nH]cn1)C(=O)N[C@@H](CC(C)C)C(=O)N[C@@H](CC(C)C)C(=O)N[C@@H](CCC(=O)O)C(=O)N[C@H](C(=O)NCC(=O)N[C@@H](Cc1ccccc1)C(=O)N[C@@H](CC(C)C)C(=O)N1CCC[C@H]1C(=O)O)C(C)C)C(C)C", "note": "[F-DPc10] (5FAM-GFCPDHKAAMVLFLDRVYGIEVQDFLLHLLEVGFLP-OH)", "values": [{"measurement": "τwash-in in controls", "setting": "[2]", "result": "~80", "unit": "min"}, {"measurement": "maximal binding (Bmax), concentration of F-DPc10-binding sites", "setting": "[3]", "result": "1.59±0.03", "unit": "μmon"}, {"measurement": "association τwash-in", "setting": "[4]; F-DPc10 500 nmol/L", "result": "79.0 ± 3.2", "unit": "min"}, {"measurement": "dissociation τwashout", "setting": "[4]; F-DPc10 500 nmol/L", "result": "149.8 ± 4.4", "unit": "min"}, {"measurement": "koff", "setting": "[4]; [5]", "result": "0.00011 ± 1e-05", "unit": "s⁻¹"}, {"measurement": "kon", "setting": "[4]; [5]", "result": "202 ± 20", "unit": "M⁻¹ s⁻¹"}, {"measurement": "kon slower than that measured for FKBP12.6", "setting": "[4]; similar conditions", "result": "≈ 1800 fold"}]}
{"compound": "O=C1N(c2ccccc2)c2ccccc2C1(Cc1ccncc1)Cc1ccncc1", "note": "[Linopirdine]", "values": [{"measurement": "effect on FRET, E(compound)/E(control); hit = outside the 3SD threshold", "setting": "[1]", "result": "hits"}]}
{"compound": "NC(=O)c1cccnc1", "note": "[Nicotinamide]", "values": [{"measurement": "effect on FRET, E(compound)/E(control); hit = outside the 3SD threshold", "setting": "[1]", "result": "hits"}]}
{"compound": "C=CC[C@@H]1/C=C(\\C)C[C@H](C)C[C@H](OC)[C@H]2O[C@@](O)(C(=O)C(=O)N3CCCC[C@H]3C(=O)O[C@H](/C(C)=C/[C@@H]3CC[C@@H](O)[C@H](OC)C3)[C@H](C)[C@@H](O)CC1=O)[C@H](C)C[C@@H]2OC", "note": "[Tacrolimus]", "values": [{"measurement": "effect on FRET, E(compound)/E(control); hit = outside the 3SD threshold", "setting": "[1]", "result": "among the hits"}, {"measurement": "effect on FRET, E(compound)/E(control); hit = outside the 3SD threshold", "setting": "[1]; listed as FK506", "result": "reducing FRET"}]}
